Drawing on patent US20260242419A1, “A CYCLIC PEPTIDE FOR TRAPPING INTERLEUKIN-1 BETA” (Merck Sharp & Dohme LLC, priority 2023, published 2026), this text covers IC50 for twelve compounds.

Starred links: 1 amine or outer side, 2 acyl side, 3 side chain; linkers in the order of their positions; H or OH if unused. Non-standard residues stand in square brackets, D forms with d. Residues, ends and D or L forms follow the SMILES beside them. Trp(4-Cl)(βS-Me) = C[C@@H](c1c[nH]c2cccc(Cl)c12)[C@H](N)C(=O)O; Trp(βS-Me,4-F) = C[C@@H](c1c[nH]c2cccc(F)c12)[C@H](N)C(=O)O; Bip(4'-COOH) = N[C@@H](Cc1ccc(-c2ccc(C(=O)O)cc2)cc1)C(=O)O; dPro(4R-Bzl(4-F)) = O=C(O)[C@H]1C[C@@H](Cc2ccc(F)cc2)CN1; 1Nal(3S-Me) = C[C@@H](c1cccc2ccccc12)[C@H](N)C(=O)O; Ala(pyrimidin-5-yl) = N[C@@H](Cc1cncnc1)C(=O)O; Phe(4-COOH) = N[C@@H](Cc1ccc(C(=O)O)cc1)C(=O)O; dαMeDab = C[C@](CCN[*:3])(N[*:1])C(=O)[*:2]; Pro(cis-4-F) = O=C(O)[C@@H]1C[C@H](F)CN1; X10 = C[C@@](CCN)(N[*:1])C(=O)[*:2]; aIle = CC[C@@H](C)[C@H](N)C(=O)O; 4Pal = N[C@@H](Cc1ccncc1)C(=O)O; aThr = C[C@H](O)[C@H](N)C(=O)O; αMeD = C[C@](N)(CC(=O)O)C(=O)O; αMeK = C[C@](N)(CCCCN)C(=O)O; hSer = N[C@@H](CCO)C(=O)O; Dab = NCC[C@H](N)C(=O)O; Aib = CC(C)(N)C(=O)O; Sar = CNCC(=O)O

This assay deals with T1, IL-1β (Homo sapiens, UniProt P01584).
T1 construct: purchased BioLegend 579404
In words: IL-6 assay in MRC5 cells: inhibition of IL-1β induced IL-6 secretion (AlphaLISA). It is filed as cell-based. The following applies: inhibition of IL-1β induced IL-6 secretion in MRC5 cells; read-out: MRC5 IC50. The procedure, abridged:
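Compound was pre-incubated 1 h at ambient temperature with recombinant human IL-1β at 2λ EC80 before adding human lung fibroblast MRC5 cells (3000/well) in EMEM with 0.025% BSA. After overnight culture at 37 °C, 5% CO2, secreted IL-6 in conditioned medium was measured by AlphaLISA; IC50 from 4-parameter logistic fits.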
(In general: In Alpha technology, singlet oxygen from a donor bead excites a nearby acceptor bead.)

T1 sequence (P01584 117-269): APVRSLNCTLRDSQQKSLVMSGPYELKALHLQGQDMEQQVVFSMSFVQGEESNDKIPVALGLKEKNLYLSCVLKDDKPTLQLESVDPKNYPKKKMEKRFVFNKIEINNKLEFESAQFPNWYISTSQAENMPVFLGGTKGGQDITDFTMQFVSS

What is called IC50 is the midpoint of a concentration-inhibition curve. Consider `C[C@@H](c1c[nH]c2cccc(F)c12)[C@@H]1NC(=O)[C@@H]2C[C@H](F)CN2C(=O)CNC(=O)[C@H](Cc2ccc(C(=O)O)cc2)NC(=O)[C@H](Cc2ccncc2)NC(=O)[C@H](Cc2ccc(-c3ccc(C(=O)O)cc3)cc2)NC(=O)[C@H]2C[C@@H](Cc3ccc(F)cc3)CN2C(=O)CNC(=O)[C@H](CCN)NC(=O)[C@H](CCC(N)=O)NC(=O)[C@H](Cc2cncnc2)NC(=O)[C@](C)(CCN)NC(=O)[C@H](Cc2c[nH]c3ccccc23)NC(=O)[C@H](CO)NC(=O)C(C)(C)NC1=O` [Example 130] (cyclo([Bip(4'-COOH)][4Pal][Phe(4-COOH)]G[Pro(cis-4-F)][Trp(βS-Me,4-F)][Aib]SW[X10][Ala(pyrimidin-5-yl)]Q[Dab]G[dPro(4R-Bzl(4-F))])), for which the IC50 amounted to 0.039 nM.
As to `C[C@@H](c1c[nH]c2cccc(F)c12)[C@@H]1NC(=O)[C@@H]2C[C@H](F)CN2C(=O)CNC(=O)[C@H](Cc2ccc(C(=O)O)cc2)NC(=O)[C@H](Cc2ccncc2)NC(=O)[C@H](Cc2ccc(-c3ccc(C(=O)O)cc3)cc2)NC(=O)[C@H]2C[C@@H](Cc3ccc(F)cc3)CN2C(=O)CNC(=O)[C@H](CCN)NC(=O)[C@H](CCC(N)=O)NC(=O)[C@H](Cc2cncnc2)NC(=O)C(C)(C)NC(=O)[C@H](Cc2c[nH]c3ccccc23)NC(=O)[C@H](CO)NC(=O)[C@@](C)(CCN)NC1=O` [Example 131] (cyclo([Bip(4'-COOH)][4Pal][Phe(4-COOH)]G[Pro(cis-4-F)][Trp(βS-Me,4-F)][dαMeDab]SW[Aib][Ala(pyrimidin-5-yl)]Q[Dab]G[dPro(4R-Bzl(4-F))])), the concentration for half-maximal inhibition (IC50) was determined as 0.019 nM.
With `C[C@@H](c1c[nH]c2cccc(F)c12)[C@@H]1NC(=O)[C@@H]2C[C@H](F)CN2C(=O)CNC(=O)[C@H](Cc2ccc(C(=O)O)cc2)NC(=O)[C@H](Cc2ccncc2)NC(=O)[C@H](Cc2ccc(-c3ccc(C(=O)O)cc3)cc2)NC(=O)[C@H]2C[C@@H](Cc3ccc(F)cc3)CN2C(=O)CN(C)C(=O)[C@H](CCN)NC(=O)[C@H](CCC(N)=O)NC(=O)[C@H](Cc2cncnc2)NC(=O)[C@](C)(CCCCN)NC(=O)[C@H](Cc2c[nH]c3ccccc23)NC(=O)[C@H](CCC(=O)O)NC(=O)C(C)(C)NC1=O` [Example 132] (cyclo([Bip(4'-COOH)][4Pal][Phe(4-COOH)]G[Pro(cis-4-F)][Trp(βS-Me,4-F)][Aib]EW[αMeK][Ala(pyrimidin-5-yl)]Q[Dab][Sar][dPro(4R-Bzl(4-F))])), the IC50 was 0.015 nM.
`C[C@@H](c1c[nH]c2cccc(F)c12)[C@@H]1NC(=O)[C@@H]2C[C@H](F)CN2C(=O)CNC(=O)[C@H](Cc2ccc(C(=O)O)cc2)NC(=O)[C@H](Cc2ccncc2)NC(=O)[C@H](Cc2ccc(-c3ccc(C(=O)O)cc3)cc2)NC(=O)[C@H]2C[C@@H](Cc3ccc(F)cc3)CN2C(=O)CNC(=O)[C@H](CCN)NC(=O)[C@H](CCC(N)=O)NC(=O)[C@H](Cc2cncnc2)NC(=O)[C@](C)(CCCCN)NC(=O)[C@H](Cc2c[nH]c3ccccc23)NC(=O)[C@H](CCO)NC(=O)C(C)(C)NC1=O` [Example 133] (cyclo([Bip(4'-COOH)][4Pal][Phe(4-COOH)]G[Pro(cis-4-F)][Trp(βS-Me,4-F)][Aib][hSer]W[αMeK][Ala(pyrimidin-5-yl)]Q[Dab]G[dPro(4R-Bzl(4-F))])): the half-inhibitory concentration (IC50) is 0.021 nM.
Regarding `C[C@@H]1NC(=O)C(C)(C)NC(=O)[C@H]([C@@H](C)c2c[nH]c3cccc(F)c23)NC(=O)[C@@H]2C[C@H](F)CN2C(=O)CNC(=O)[C@H](Cc2ccc(C(=O)O)cc2)NC(=O)[C@H](Cc2ccncc2)NC(=O)[C@H](Cc2ccc(-c3ccc(C(=O)O)cc3)cc2)NC(=O)[C@H]2C[C@@H](Cc3ccc(F)cc3)CN2C(=O)CNC(=O)[C@H](CCN)NC(=O)[C@H](CCC(N)=O)NC(=O)[C@H](Cc2cncnc2)NC(=O)[C@](C)(CCCCN)NC(=O)[C@H](Cc2c[nH]c3ccccc23)NC1=O` [Example 134] (cyclo([Bip(4'-COOH)][4Pal][Phe(4-COOH)]G[Pro(cis-4-F)][Trp(βS-Me,4-F)][Aib]AW[αMeK][Ala(pyrimidin-5-yl)]Q[Dab]G[dPro(4R-Bzl(4-F))])), the IC50 amounted to 0.021 nM.
With `CC(C)[C@@H]1NC(=O)C(C)(C)NC(=O)[C@H]([C@@H](C)c2c[nH]c3cccc(F)c23)NC(=O)[C@@H]2C[C@H](F)CN2C(=O)CNC(=O)[C@H](Cc2ccc(C(=O)O)cc2)NC(=O)[C@H](Cc2ccncc2)NC(=O)[C@H](Cc2ccc(-c3ccc(C(=O)O)cc3)cc2)NC(=O)[C@H]2C[C@@H](Cc3ccc(F)cc3)CN2C(=O)CNC(=O)[C@H](CCN)NC(=O)[C@H](CCC(N)=O)NC(=O)[C@H](Cc2cncnc2)NC(=O)[C@](C)(CCCCN)NC(=O)[C@H](Cc2c[nH]c3ccccc23)NC1=O` [Example 135] (cyclo([Bip(4'-COOH)][4Pal][Phe(4-COOH)]G[Pro(cis-4-F)][Trp(βS-Me,4-F)][Aib]VW[αMeK][Ala(pyrimidin-5-yl)]Q[Dab]G[dPro(4R-Bzl(4-F))])), the IC50 is 0.035 nM.
Take `CC[C@@H](C)[C@@H]1NC(=O)C(C)(C)NC(=O)[C@H]([C@@H](C)c2c[nH]c3cccc(F)c23)NC(=O)[C@@H]2C[C@H](F)CN2C(=O)CNC(=O)[C@H](Cc2ccc(C(=O)O)cc2)NC(=O)[C@H](Cc2ccncc2)NC(=O)[C@H](Cc2ccc(-c3ccc(C(=O)O)cc3)cc2)NC(=O)[C@H]2C[C@@H](Cc3ccc(F)cc3)CN2C(=O)CNC(=O)[C@H](CCN)NC(=O)[C@H](CCC(N)=O)NC(=O)[C@H](Cc2cncnc2)NC(=O)[C@](C)(CCCCN)NC(=O)[C@H](Cc2c[nH]c3ccccc23)NC1=O` [Example 136] (cyclo([Bip(4'-COOH)][4Pal][Phe(4-COOH)]G[Pro(cis-4-F)][Trp(βS-Me,4-F)][Aib][aIle]W[αMeK][Ala(pyrimidin-5-yl)]Q[Dab]G[dPro(4R-Bzl(4-F))])): the IC50 came to 0.027 nM.
Regarding `C[C@@H](O)[C@@H]1NC(=O)C(C)(C)NC(=O)[C@H]([C@@H](C)c2c[nH]c3cccc(F)c23)NC(=O)[C@@H]2C[C@H](F)CN2C(=O)CNC(=O)[C@H](Cc2ccc(C(=O)O)cc2)NC(=O)[C@H](Cc2ccncc2)NC(=O)[C@H](Cc2ccc(-c3ccc(C(=O)O)cc3)cc2)NC(=O)[C@H]2C[C@@H](Cc3ccc(F)cc3)CN2C(=O)CNC(=O)[C@H](CCN)NC(=O)[C@H](CCC(N)=O)NC(=O)[C@H](Cc2cncnc2)NC(=O)[C@](C)(CCCCN)NC(=O)[C@H](Cc2c[nH]c3ccccc23)NC1=O` [Example 137] (cyclo([Bip(4'-COOH)][4Pal][Phe(4-COOH)]G[Pro(cis-4-F)][Trp(βS-Me,4-F)][Aib]TW[αMeK][Ala(pyrimidin-5-yl)]Q[Dab]G[dPro(4R-Bzl(4-F))])), the half-maximal inhibitory concentration (IC50) worked out at 0.022 nM.
`C[C@H](O)[C@@H]1NC(=O)C(C)(C)NC(=O)[C@H]([C@@H](C)c2c[nH]c3cccc(F)c23)NC(=O)[C@@H]2C[C@H](F)CN2C(=O)CNC(=O)[C@H](Cc2ccc(C(=O)O)cc2)NC(=O)[C@H](Cc2ccncc2)NC(=O)[C@H](Cc2ccc(-c3ccc(C(=O)O)cc3)cc2)NC(=O)[C@H]2C[C@@H](Cc3ccc(F)cc3)CN2C(=O)CNC(=O)[C@H](CCN)NC(=O)[C@H](CCC(N)=O)NC(=O)[C@H](Cc2cncnc2)NC(=O)[C@](C)(CCCCN)NC(=O)[C@H](Cc2c[nH]c3ccccc23)NC1=O` [Example 138] (cyclo([Bip(4'-COOH)][4Pal][Phe(4-COOH)]G[Pro(cis-4-F)][Trp(βS-Me,4-F)][Aib][aThr]W[αMeK][Ala(pyrimidin-5-yl)]Q[Dab]G[dPro(4R-Bzl(4-F))])): the 50% inhibitory concentration (IC50) turned out to be 0.021 nM.
In the case of `C[C@@H](c1c[nH]c2cccc(Cl)c12)[C@@H]1NC(=O)[C@@H]2C[C@H](F)CN2C(=O)CNC(=O)[C@H](Cc2ccc(C(=O)O)cc2)NC(=O)[C@H](Cc2ccncc2)NC(=O)[C@H](Cc2ccc(-c3ccc(C(=O)O)cc3)cc2)NC(=O)[C@H]2C[C@@H](Cc3ccc(F)cc3)CN2C(=O)CNC(=O)[C@H](CCN)NC(=O)[C@H](CCC(N)=O)NC(=O)[C@H](Cc2cncnc2)NC(=O)C(C)(C)NC(=O)[C@H](Cc2c[nH]c3ccccc23)NC(=O)[C@H](CO)NC(=O)C(C)(C)NC1=O` [Example 139] (cyclo([Bip(4'-COOH)][4Pal][Phe(4-COOH)]G[Pro(cis-4-F)][Trp(4-Cl)(βS-Me)][Aib]SW[Aib][Ala(pyrimidin-5-yl)]Q[Dab]G[dPro(4R-Bzl(4-F))])) it was 0.034 nM; in that of `C[C@@H](c1cccc2ccccc12)[C@@H]1NC(=O)[C@@H]2C[C@H](F)CN2C(=O)CNC(=O)[C@H](Cc2ccc(C(=O)O)cc2)NC(=O)[C@H](Cc2ccncc2)NC(=O)[C@H](Cc2ccc(-c3ccc(C(=O)O)cc3)cc2)NC(=O)[C@H]2C[C@@H](Cc3ccc(F)cc3)CN2C(=O)CNC(=O)[C@H](CCN)NC(=O)[C@H](CCC(N)=O)NC(=O)[C@H](Cc2cncnc2)NC(=O)C(C)(C)NC(=O)[C@H](Cc2c[nH]c3ccccc23)NC(=O)[C@H](CO)NC(=O)C(C)(C)NC1=O` [Example 140] (cyclo([Bip(4'-COOH)][4Pal][Phe(4-COOH)]G[Pro(cis-4-F)][1Nal(3S-Me)][Aib]SW[Aib][Ala(pyrimidin-5-yl)]Q[Dab]G[dPro(4R-Bzl(4-F))])), 0.033 nM; in that of `C[C@@H](c1c[nH]c2cccc(F)c12)[C@@H]1NC(=O)[C@@H]2C[C@H](F)CN2C(=O)CNC(=O)[C@H](Cc2ccc(C(=O)O)cc2)NC(=O)[C@H](Cc2ccncc2)NC(=O)[C@H](Cc2ccc(-c3ccc(C(=O)O)cc3)cc2)NC(=O)[C@H]2C[C@@H](Cc3ccc(F)cc3)CN2C(=O)CNC(=O)[C@H](CCN)NC(=O)[C@H](CCC(N)=O)NC(=O)[C@H](Cc2cncnc2)NC(=O)[C@](C)(CC(=O)O)NC(=O)[C@H](Cc2c[nH]c3ccccc23)NC(=O)[C@H](CO)NC(=O)C(C)(C)NC1=O` [Example 141] (cyclo([Bip(4'-COOH)][4Pal][Phe(4-COOH)]G[Pro(cis-4-F)][Trp(βS-Me,4-F)][Aib]SW[αMeD][Ala(pyrimidin-5-yl)]Q[Dab]G[dPro(4R-Bzl(4-F))])), 0.011 nM.
